Test results as given in patent US7265120B2, “Pyrazine derivatives and pharmaceutical use thereof” (Astellas Pharma Inc., priority 2004, dated 2007).

What was measured:
ddY mice = test: Anticatalepsy activity in mouse (haloperidol-induced catalepsy, bar test); assay type: in vivo; details: 3.2 mg/kg orally, ddY mice n=7; haloperidol 0.32 mg/kg i.p. 30 min after compound; measured 30 min after injection, up to 30 sec
Procedure: Test 2: Anticatalepsy Activity in Mouse [I] Test Method
The test compound (3.2 mg/kg) was administered orally with ddY mice (n=7). Then, haloperidol (0.32 mg/kg) was injected intraperitoneally 30 min. after the administration of the compound. Thirty min. after the injection, the cataleptic responses of mice were measured. The forelimbs of each mouse were placed on a 3 cm high, 3 mm wide horizontal bar, and the duration of cataleptic posture was measured for up to 30 sec.

human A1 receptor = molecular target: T1, human A1 receptor (Homo sapiens, UniProt P30542); test: Adenosine antagonistic activity, radioligand binding ([3H]DPCPX); details: [3H]DPCPX 4.5 nM
T1 sequence (P30542 1-326): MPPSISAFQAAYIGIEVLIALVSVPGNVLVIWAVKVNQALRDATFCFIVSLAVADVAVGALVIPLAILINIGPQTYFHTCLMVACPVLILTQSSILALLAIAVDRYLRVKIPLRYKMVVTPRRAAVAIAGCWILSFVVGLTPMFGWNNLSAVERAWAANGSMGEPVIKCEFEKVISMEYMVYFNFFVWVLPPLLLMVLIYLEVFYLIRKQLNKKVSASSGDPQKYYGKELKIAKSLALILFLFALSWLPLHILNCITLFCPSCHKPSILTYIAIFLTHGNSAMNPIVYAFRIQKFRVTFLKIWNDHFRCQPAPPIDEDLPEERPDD
Procedure: (§1) Test 1: Adenosine Antagonistic Activity
(§2) The adenosine antagonistic activity [Ki (nM)] of the test compound was examined by radioligand binding techniques using 8-cyclopentyl-1,3-dipropylxanthine, [dipropyl-2,3-^3H(N)] ([^3H]DPCPX, 4.5 nM) for human A1 receptor and [^3H]CGS 21680 (20 nM) for human A2a receptor.

human A2a receptor = human A2a receptor (Homo sapiens, UniProt P29274); test: Adenosine antagonistic activity, radioligand binding ([3H]CGS 21680); details: [3H]CGS 21680 20 nM
Procedure: as §1, §2

human A2a receptor, sequence (P29274 whole entry): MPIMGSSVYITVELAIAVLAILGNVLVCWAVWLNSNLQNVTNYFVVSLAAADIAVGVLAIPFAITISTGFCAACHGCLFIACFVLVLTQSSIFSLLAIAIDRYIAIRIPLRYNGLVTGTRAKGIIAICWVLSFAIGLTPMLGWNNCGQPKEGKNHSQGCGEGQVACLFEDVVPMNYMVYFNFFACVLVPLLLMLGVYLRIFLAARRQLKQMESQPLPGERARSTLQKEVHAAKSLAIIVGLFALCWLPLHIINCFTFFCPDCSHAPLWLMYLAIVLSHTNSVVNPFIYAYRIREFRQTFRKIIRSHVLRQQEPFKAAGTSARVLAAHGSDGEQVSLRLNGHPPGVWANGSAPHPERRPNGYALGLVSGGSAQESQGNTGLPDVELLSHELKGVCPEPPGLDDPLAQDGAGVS

| SMILES | Ki (human A1 receptor) [nM] | Ki (human A2a receptor) [nM] | melting point [°C] | Manifestation rate of Catalepsy (number of mouse) (ddY mice) |
| --- | --- | --- | --- | --- |
| CC(C)n1nc(-c2nc(C#Cc3cncn3C)c(N)nc2-c2ccccc2)ccc1=O [Example 75, 6-{5-amino-6-[(1-methyl-1H-imidazol-5-yl)ethynyl]-3-phenyl-2-pyrazinyl}-2-isopropyl-3(2H)-pyridazinone] | 0.72 | 0.25 | > 250 | 0/7 |
| CC(C)n1nc(-c2nc(NCc3ccco3)c(N)nc2-c2ccccc2)ccc1=O [Example 134, 6-{5-amino-6-[(2-furylmethyl)amino]-3-phenyl-2-pyrazinyl}-2-isopropyl-3(2H)-pyridazinone] | 6.66 | 2.6 | 206.5 to 209 | 1/7 |
| CC(C)n1nc(-c2nc(OCc3ccccn3)c(N)nc2-c2ccccc2)ccc1=O [Example 163, 6-[5-amino-3-phenyl-6-(2-pyridylmethoxy)-2-pyrazinyl]-2-isopropyl-3(2H)-pyridazinone] | 1.35 | 0.42 | 150 to 151 | 2/7 |
| CCCCOc1nc(-c2ccc(=O)n(C)n2)c(-c2ccccc2)nc1N [Example 179, 6-(5-amino-6-butoxy-3-phenyl-2-pyrazinyl)-2-methyl-3(2H)-pyridazinone] | 16.4 | 1.57 | 143 to 144 | 1/7 |

The remaining molecules from weak to strong by Ki (human A1 receptor), led by results:

| Ki (human A1 receptor) [nM] | Ki (human A2a receptor) [nM] | melting point [°C] | SMILES | Manifestation rate of Catalepsy (number of mouse) (ddY mice) |
| --- | --- | --- | --- | --- |
| 18.9 | 4.95 | 187 to 189.5 | Cn1nc(-c2nc(-n3cccn3)c(N)nc2-c2ccccc2)ccc1=O [Example 153, 6-[5-amino-3-phenyl-6-(1H-pyrazol-1-yl)-2-pyrazinyl]-2-methyl-3(2H)-pyridazinone] | 2/7 |
| 13.2 | 1.49 | 158 to 159.5 | Cn1nc(-c2nc(OCc3ccco3)c(N)nc2-c2ccccc2)ccc1=O [Example 184, 6-[5-amino-6-(2-furylmethoxy)-3-phenyl-2-pyrazinyl]-2-methyl-3(2H)-pyridazinone] | 2/7 |
| 0.88 | 0.29 | 239 to 241 | CC(C)n1nc(-c2nc(C#Cc3ccccc3)c(N)nc2-c2ccccc2)ccc1=O [Example 70, 6-[5-amino-3-phenyl-6-(phenylethynyl)-2-pyrazinyl]-2-isopropyl-3(2H)-pyridazinone] | 0/7 |
